Assay results as given in paper PMC3049263 (Bioorganic & medicinal chemistry, 2010).
Like-named read-outs stand apart in the source and are kept apart here.

How the values were obtained:
recombinant HIV-1YU2 = type: cell-based; conditions: CD4-deficient Cf2Th-CCR5 cells
[1] = system: D368A mutant HIV-1YU2 envelope glycoproteins; type: cell-based; conditions: vestibule of the Phe 43 cavity
[2] = system: S375A mutant HIV-1YU2 envelope glycoproteins; type: cell-based; conditions: base of the Phe 43 cavity
wild-type HIV-1YU2 virus = type: cell-based; conditions: CD4-expressing Cf2Th-CCR5 target cells
gp120 = gp120 (Human immunodeficiency virus type 1 group M subtype B, UniProt P35961); assay: Isothermal titration calorimetry binding to gp120

Structure (SMILES) | Enhancement of viral infectivity (in words) (recombinant HIV-1YU2) | Inhibition of CD4-gp120 binding / viral infection (in words) (wild-type HIV-1YU2 virus) | gp120 binding affinity (in words) (gp120; ITC) | also measured
C[C@@H]1CCC[C@H](C)N1CCNC(=O)C(=O)Nc1ccc(Cl)c(F)c1 [Compound 50] | ineffective at enhancing viral infectivity |  |  | Effect of D368A mutation on analogue binding (in words) [1]: negative effect; Effect of S375A mutation on inhibition of CD4-gp120 binding (in words) [2]: increases the ability of these analogues to inhibit CD4-gp120 binding
CCN1CCCC1CNC(=O)C(=O)Nc1ccc(Cl)cc1 (stereo not shown) [Compound 42] |  | inhibited CD4-gp120 binding |  | 
O=C(NCC1NCCc2ccccc21)C(=O)Nc1ccc(Cl)c(F)c1 (stereo not shown) [Compound 39] | decreased enhancement of viral infectivity |  |  | 
O=C(Nc1ccc(Cl)c(F)c1)C(=O)NC1CCNC2(CCC2)C1 (stereo not shown) [Compound 49] | activation of viral infectivity similar to 1 | maintained inhibition | sub-micromolar binding affinity | Effect of D368A mutation on analogue binding (in words) [1]: negative effect; Effect of S375A mutation on inhibition of CD4-gp120 binding (in words) [2]: increases the ability of these analogues to inhibit CD4-gp120 binding
CCN1CCCC1CNC(=O)C(=O)Nc1ccc(Cl)c(F)c1 (stereo not shown) [Compound 43] | without the accompanying enhancement of viral infectivity |  | binding affinity comparable to 41 | 
CC(C)N1CCCCC1CCNC(=O)C(=O)Nc1ccc(Cl)c(F)c1 (stereo not shown) [Compound 25] |  | improved IC50 |  | 
CC(C)N1CCC(NC(=O)C(=O)Nc2ccc(Cl)c(F)c2)CC1 [Compound 11] |  |  | retention of binding affinity | 
O=C(NCC1CCCN(CCO)C1)C(=O)Nc1ccc(Cl)c(F)c1 (stereo not shown) [Compound 51] | ineffective at enhancing viral infectivity |  |  | 
CC1(C)C2CCC1(C)C(NC(=O)C(=O)Nc1ccc(Cl)c(F)c1)C2 (stereo not shown) [Compound 18] |  | failed to exhibit inhibition |  | 
CC1(C)CC(NC(=O)C(=O)Nc2ccc(Cl)c(F)c2)CC(C)(C)O1 [Compound 19] |  |  | reduced binding | 
CC1(C)CC(NC(=O)C(=O)Nc2ccc(Cl)c(F)c2)CC(C)(C)[N+]1(C)[O-] (stereo not shown) [Compound 20] |  |  |  | gp120 binding affinity (in words) (gp120): reduced binding
CC1(C)CC(NC(=O)C(=O)Nc2ccc(Cl)c(F)c2)CC(C)(C)C1 [Compound 17] |  | failed to exhibit inhibition |  | 
